Laboratory results as given in EP4813970A1, “L-SERINE HAVING REDUCED HEAVY METAL AMOUNT, PHARMACEUTICAL COMPOSITION THEREOF, PREPARATION METHOD THEREFOR, AND USE THEREOF” (priority 2023, dated 2025).
Where two headings read alike, the source gives them in different places.

What was measured:
primary neurons = assay: Multi-electrode array (MEA) of neuronal electrical activity under DMNQ neurotoxicity; format: cell-based, mouse; details: FIG. 3
Experimental: After adding an equal volume of culture medium, cells were separated by a mechanical method using a pipet, and single cells were separated using a 40 µm cell strainer. After centrifugation at 2,000 rpm for 5 minutes, the supernatant was removed and resuspended in culture medium. […] A 50% PEI solution, which was prepared by mixing borate buffer and PEI in a 1:1 ratio, was diluted with a 0.1% PEI solution using borate buffer and then filtered using a 0.22 µm filter. […] Laminin stock stored at -20°C was thawed at 4°C and then diluted in serum-free medium (20 ng/mL). 40 µL of 0.1% PEI was added to each well of a 24-well MEA plate, and then the 24-well MEA plate was placed in a cell incubator at 37°C and 5% CO2 for 60 minutes. After washing the 24-well MEA plate three times with sterile DW, the laminin solution was added 50 µL per well and placed overnight in a cell incubator at 37°C and 5% CO2. After removing the laminin solution from the 24-well MEA plate, the prepared primary neurons were seeded at a concentration of 1.0 × 10^5 cells/well. […] Neuronal electrical activity was measured using the Maestro Edge system every 30 minutes for 15 minutes, and the same amount of secondary purified L-serine was pretreated for 4 hours based on 0.1 mM unpurified L-serine. After drug pretreatment for 4 hours, neuronal electrical activity was measured 4 times at 30 minute intervals during 2-hour treatment with 20 µM DMNQ, and the data was analyzed using a neural metric tool and an axis metric plotting tool. […] For the MEA, neurons were cultured on electrodes for several weeks to form a network and then the electrical signals, that is action potentials, generated from the neurons were measured. […] The primary neuronal culture was cultured in 24-well MEA plates for approximately 15 days, and when electrical signals were passed through sporadic bursts and activated into synchronous network bursts, test substances were treated at concentrations not affecting cell viability, and action potentials were measured and compared.

HT22 cells = assay: Mitochondrial membrane potential by JC-1 staining after DMNQ damage; format: cell-based
Experimental: HT22 cells were cultured under 37°C and 5% CO2 conditions using DMEM medium containing 10% FBS, 100 unit/mL penicillin, and 100 µg/mL streptomycin. […] After checking the condition of the cells, 5 µM JC-1 was added to the medium and the cells were stained for 30 minutes under 37°C and 5% CO2 conditions, treated with 0.25% trypsin-EDTA and the cells were collected in an e-tube, washed twice with PBS, and analyzed with Attune NxT. The effect of L-serine, which contains class 1 heavy metals, on mitochondria, which affects both neurological diseases and metabolic diseases, was confirmed depending on the concentration of class 1 heavy metals. DMNQ causes oxidative stress and excessive production of ROS, which induces mitochondrial membrane potential depolarization, thereby resulting in mitochondrial dysfunction and apoptosis. In mitochondria, an electrochemical proton gradient is created through the mitochondrial membrane, which produces ATP, and when mitochondria are damaged and apoptosis occurs, mitochondrial permeability pores are opened and thus mitochondrial transmembrane potential decreases (membrane potential depolarization). Mitochondrial membrane potential difference, which is an indicator of apoptosis, was measured through JC-1 staining. JC-1 enters the mitochondria in normal cells due to changes in mitochondrial membrane potential and forms a multicomplex, thereby giving it a red color, whereas when apoptosis occurs due to depolarization of the mitochondrial membrane potential, JC-1 remains in the cytoplasm and gives it a green color. Four hours before DMNQ treatment, neurons were treated with unpurified L-serine, primary purified L-serine, and secondary purified L-serine, and then treating with DMNQ for 2 hours and 30 minutes, the degree of protection of neurons was measured by measuring the mitochondrial membrane potential difference through JC-1 staining.

[1] = system: patients with hereditary sensory and autonomic neuropathy type 1 (HSAN1); details: cited from earlier work
[2] = system: fetuses with 3-PGDH deficiency; details: cited from earlier work
[3] = system: patients with amyotrophic lateral sclerosis (ALS); details: cited from earlier work
[4] = system: patients with autism spectrum disorder; assay: Phase 2 clinical trial of L-serine in children under 11 years of age; details: 400 mg/kg for 24 weeks
[5] = system: 5XFAD (Tg6799; five familial mutation); assay: Survival on 9-month administration in an Alzheimer's disease animal model; format: in vivo, mice; details: 500 mg/kg orally 5 days a week for 9 months, 3 to 12 months of age
Experimental: In order to measure the extent to which the class 1 heavy metal content in L-serine affects neurons when taken over a long period of time, long-term administration of L-serine for 9 months from the early stage of the disease (3 months of age) to 12 months of age was conducted using 5XFAD (Tg6799; five familial mutation), which is an animal model of Alzheimer's disease, and the effect of the drug on animal viability was confirmed. Specifically, WT & 5XFAD mice (purchased from The Jackson Lab) administered with saline and WT & 5XFAD mice administered with L-serine were composed of 12 mice per group. Saline and 500 mg/kg of unpurified L-serine and secondary purified L-serine were orally administered 5 days a week for 9 months, and after administration, the survival rate (%) was measured through daily observation of mice and designated as survival rate.

[6] = oral twice a day, maximum dose of 15 g/day for 6 months
[7] = 4 hours pretreatment (based on 0.1 mM unpurified L-serine), then 2-hour 20 µM DMNQ

In the case of `COC1=C(OC)C(=O)c2ccccc2C1=O` [DMNQ], the “active electrodes (spikes and network bursts)” value (“active electrodes” for short) (primary neurons; 20 µM DMNQ alone, compared to the control group) is reported as “significantly reduced” and the “mitochondrial damage (green)” value (HT22 cells; 20 µM DMNQ alone) is reported as 81.4±4.2%.
In the case of `N[C@@H](CO)C(=O)O` [L-serine], the “safety and Charcot-Marie-Tooth Neuropathy Score (CMTNS)” value ([1]; 400 mg/kg/day for up to 2 years) is given as “effects of improving safety and Charcot-Marie-Tooth Neuropathy Score (CMTNS) were confirmed”, the “1-deoxySL (dSL)” value ([1]; oral, up to 400 mg/kg/day for 10 and 52 weeks) is given as “reduced” and the “brain growth in fetuses” value ([2]; maternal supply of L-serine during pregnancy) is given as “shown to improve brain growth”. For the same compound, the neurological symptoms ([2]; postnatal children (birth to 4 years old)) was “shown to prevent neurological symptoms”, the adverse reactions ([2]; pregnant women, fetuses, and newborns) was “no adverse reactions were observed” and the “progression of the patients' disease” value [3, 6] was “showed the effect of delaying the progression of the patients' disease”. For the same compound, the safety [3, 6] was “safe”, the safety ([3]; phase 2 clinical trials, up to 15 g twice a day for 6 months) was “shown to be safe” and the “mitochondrial damage (green)” value (HT22 cells; 0.5 mM, pre-treated 4 hours, then 20 µM DMNQ) was 32.1±1.52%. The “mitochondrial damage (green)” value (HT22 cells; 1 mM, pre-treated 4 hours, then 20 µM DMNQ) was 18.7±11.1%, the “mitochondrial damage (green)” value (HT22 cells; 2.5 mM, pre-treated 4 hours, then 20 µM DMNQ) was 1.5±0.23% and the side effects [4] was “without any unusual side effects”. For the same compound, the treatment efficiency [4] was “about 40%”.
In the case of `N[C@@H](CO)C(=O)O` [secondary purified L-serine, L-serine], the “active electrodes” value (primary neurons; [7]) is reported as “active electrodes in a state without DMNQ treatment were maintained” and the survival rate [5] is reported as 80%.
For `N[C@@H](CO)C(=O)O` [unpurified L-serine, L-serine], the “active electrodes” value (primary neurons; [7]) was “the effect was not distinct” and the survival rate [5] was 58%.
